Assay: xn = mol fraction of the nth substance listed

O=P(O)(O)O + O
Conditions	viscosity [mPa·s]
293.15 K, 101 kPa, x1 = 0.404	27.7
293.15 K, 101 kPa, x1 = 0.441	32.01
293.15 K, 101 kPa, x1 = 0.504	46.83
293.15 K, 101 kPa, x1 = 0.537	54.26
293.15 K, 101 kPa, x1 = 0.574	64.47
293.15 K, 101 kPa, x1 = 0.603	69.15
293.15 K, 101 kPa, x1 = 0.616	75.28
293.15 K, 101 kPa, x1 = 0.626	79.2
298 K, 101.33 kPa, x1 = 0.0038	0.939
298 K, 101.33 kPa, x1 = 0.007	0.979
298 K, 101.33 kPa, x1 = 0.014	1.075
298 K, 101.33 kPa, x1 = 0.0215	1.191
298 K, 101.33 kPa, x1 = 0.029	1.307
298 K, 101.33 kPa, x1 = 0.0376	1.457
298 K, 101.33 kPa, x1 = 0.0462	1.62
298 K, 101.33 kPa, x1 = 0.0537	1.786
298 K, 101.33 kPa, x1 = 0.0604	1.955
298 K, 101.33 kPa, x1 = 0.0714	2.204
298 K, 101.33 kPa, x1 = 0.0832	2.521
298 K, 101.33 kPa, x1 = 0.0925	2.842
298 K, 101.33 kPa, x1 = 0.1	3.033
298 K, 101.33 kPa, x1 = 0.106	3.198
298 K, 101.33 kPa, x1 = 0.111	3.378
298 K, 101.33 kPa, x1 = 0.151	4.902
298 K, 101.33 kPa, x1 = 0.2128	7.936
298 K, 101.33 kPa, x1 = 0.2654	11.32
298 K, 101.33 kPa, x1 = 0.311	14.88
298 K, 101.33 kPa, x1 = 0.3511	18.8
298 K, 101.33 kPa, x1 = 0.3871	22.93
298 K, 101.33 kPa, x1 = 0.422	27.24
298 K, 101.33 kPa, x1 = 0.4737	35.19
298 K, 101.33 kPa, x1 = 0.5388	46.3
298 K, 101.33 kPa, x1 = 0.6043	59.76
298.15 K, 100 kPa, x2 = 0.333	70.64
298.15 K, 101 kPa, x1 = 0.0018	0.9162
298.15 K, 101 kPa, x1 = 0.0054	0.9543
298.15 K, 101 kPa, x1 = 0.0089	1
298.15 K, 101 kPa, x1 = 0.012	1.054
298.15 K, 101 kPa, x1 = 0.016	1.089
298.15 K, 101 kPa, x1 = 0.404	24.33
298.15 K, 101 kPa, x1 = 0.441	27.61
298.15 K, 101 kPa, x1 = 0.504	37.59
298.15 K, 101 kPa, x1 = 0.537	43.17
298.15 K, 101 kPa, x1 = 0.574	50.35
298.15 K, 101 kPa, x1 = 0.603	54.12
298.15 K, 101 kPa, x1 = 0.616	60.3
298.15 K, 101 kPa, x1 = 0.626	64.75
303.15 K, 100 kPa, x2 = 0.333	55.6
303.15 K, 101 kPa, x1 = 0.0018	0.8163
303.15 K, 101 kPa, x1 = 0.0054	0.8526
303.15 K, 101 kPa, x1 = 0.0089	0.8928
303.15 K, 101 kPa, x1 = 0.012	0.9281
303.15 K, 101 kPa, x1 = 0.016	0.9679
303.15 K, 101 kPa, x1 = 0.404	20.3
303.15 K, 101 kPa, x1 = 0.441	23.66
303.15 K, 101 kPa, x1 = 0.504	30.35
303.15 K, 101 kPa, x1 = 0.537	34.61
303.15 K, 101 kPa, x1 = 0.574	38.68
303.15 K, 101 kPa, x1 = 0.603	43.03
303.15 K, 101 kPa, x1 = 0.616	46.81
303.15 K, 101 kPa, x1 = 0.626	52.57
308.15 K, 100 kPa, x2 = 0.333	46.73
308.15 K, 101 kPa, x1 = 0.0018	0.7331
308.15 K, 101 kPa, x1 = 0.0054	0.763
308.15 K, 101 kPa, x1 = 0.0089	0.794
308.15 K, 101 kPa, x1 = 0.012	0.84
308.15 K, 101 kPa, x1 = 0.016	0.8774
308.15 K, 101 kPa, x1 = 0.404	17.53
308.15 K, 101 kPa, x1 = 0.441	19.85
308.15 K, 101 kPa, x1 = 0.504	24.19
308.15 K, 101 kPa, x1 = 0.537	27.64
308.15 K, 101 kPa, x1 = 0.574	31.89
308.15 K, 101 kPa, x1 = 0.603	33.9
308.15 K, 101 kPa, x1 = 0.616	37.64
308.15 K, 101 kPa, x1 = 0.626	41.08
313.15 K, 100 kPa, x2 = 0.333	39.76
313.15 K, 101 kPa, x1 = 0.404	14.63
313.15 K, 101 kPa, x1 = 0.441	17.7
313.15 K, 101 kPa, x1 = 0.504	21.48
313.15 K, 101 kPa, x1 = 0.537	22.64
313.15 K, 101 kPa, x1 = 0.574	25.3
313.15 K, 101 kPa, x1 = 0.603	27.25
313.15 K, 101 kPa, x1 = 0.616	29.46
313.15 K, 101 kPa, x1 = 0.626	32.1
318.15 K, 100 kPa, x2 = 0.333	32.46
323.15 K, 100 kPa, x2 = 0.333	27.57

C=C(C)C(=O)OCc1ccccc1 + O=C1CCCCC1
viscosity [mPa·s], 101 kPa
Conditions	x2 = 0.1	x2 = 0.1999	x2 = 0.3	x2 = 0.3999	x2 = 0.5	x2 = 0.6	x2 = 0.7	x2 = 0.8	x2 = 0.9
298.15 K	2.208	2.141	2.079	2.038	2.002	1.972	1.95	1.943	1.934
308.15 K	1.816	1.765	1.718	1.687	1.656	1.632	1.617	1.602	1.589
318.15 K	1.519	1.484	1.447	1.422	1.398	1.383	1.369	1.356	1.348

CC(=O)OCCC(C)C + O=[N+]([O-])c1ccccc1
viscosity [mPa·s], 101 kPa
Conditions	298.15 K	308.15 K
x1 = 0.0448	1.721	1.488
x1 = 0.1512	1.567	1.367
x1 = 0.249	1.439	1.267
x1 = 0.3494	1.321	1.174
x1 = 0.4412	1.222	1.096
x1 = 0.5	1.164	1.05
x1 = 0.5486	1.118	1.014
x1 = 0.6489	1.03	0.945
x1 = 0.7486	0.951	0.882
x1 = 0.8513	0.876	0.823
x1 = 0.9464	0.814	0.773

CC(=O)OCCC(C)C + c1ccccc1
viscosity [mPa·s], 101 kPa
Conditions	298.15 K	308.15 K
x1 = 0.0442	0.606	0.532
x1 = 0.1509	0.614	0.547
x1 = 0.2507	0.623	0.563
x1 = 0.3514	0.635	0.58
x1 = 0.4526	0.65	0.6
x1 = 0.4814	0.655	0.606
x1 = 0.5508	0.667	0.621
x1 = 0.6491	0.686	0.644
x1 = 0.7484	0.709	0.67
x1 = 0.8475	0.735	0.698
x1 = 0.9443	0.763	0.728

CCOP(OCC)OCC + c1ccncc1
298.15 K, 101 kPa
Conditions	viscosity [mPa·s]
x1 = 0.2	0.792
x1 = 0.4	0.76
x1 = 0.6	0.738
x1 = 0.8	0.707

Reference: the CheMixHub viscosity set
